This note sets out measurements from patent publication US7365095B2, “Chromane and chromene derivatives and uses thereof” (Wyeth, priority 2005, dated 2008).

Where a name gives a salt, the structure may show the parent alone. Read-outs that look alike come from different tables or passages of the source.

Test [1] addresses T1, human 5-HT2C receptor (Homo sapiens, UniProt P28335).
T1 sequence (P28335 33-458): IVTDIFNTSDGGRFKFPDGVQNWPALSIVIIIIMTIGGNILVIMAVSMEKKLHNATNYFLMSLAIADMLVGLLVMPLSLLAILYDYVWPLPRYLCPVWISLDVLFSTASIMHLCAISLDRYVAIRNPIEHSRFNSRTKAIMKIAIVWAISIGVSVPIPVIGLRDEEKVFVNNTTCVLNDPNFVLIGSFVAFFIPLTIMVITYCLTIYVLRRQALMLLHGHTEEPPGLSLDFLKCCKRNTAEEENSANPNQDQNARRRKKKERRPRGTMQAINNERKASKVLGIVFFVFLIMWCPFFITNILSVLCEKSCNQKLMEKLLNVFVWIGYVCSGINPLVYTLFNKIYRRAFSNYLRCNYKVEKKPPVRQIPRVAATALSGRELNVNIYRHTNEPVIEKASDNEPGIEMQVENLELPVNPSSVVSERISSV
Put plainly: calcium mobilization (FLIPR) in CHO cells stably expressing the human 5-HT2C receptor. The format is cell-based. As to conditions: for Emax: CHO, read-out: 5-HT2C Function EMax (%); for EC50: calcium mobilization, read-out: 5-HT2C Function EC50. On the technique in general: Calcium flux is commonly read through the fluorescence of an indicator in the cells.

The target of test [2] is T2, human 5-hydroxytryptamine-2C (h5-HT2C) receptor (Homo sapiens, UniProt P28335).
T2 construct: expressed in transfected cells; host or cells: CHO (Chinese Hamster Ovary) cells; membrane preparation
T2 sequence (P28335 33-458): T1 sequence (P28335 33-458)
Description: [125I]DOI binding to membranes of CHO cells expressing h5-HT2C receptor.

[3] abbreviates: read-out: 5-HT2C Binding Ki avg.

The term Emax denotes the size of the effect at its maximum, as opposed to the concentration needed. The EC50 is the concentration needed to bring the measured effect to its halfway point. One may read the Ki as the dissociation constant of the complex between target and ligand, obtained from inhibition or displacement. For the compound `Cc1ccccc1-c1cccc2c1O[C@H](CN)CC2` [Compound 33, {[(2S)-8-(2-methylphenyl)-3,4-dihydro-2H-chromen-2-yl]methyl}amine hydrochloride], in test [1], the Emax is 80% and the EC50 is greater than 200 nM. Moreover, the inhibitory constant (Ki) in test [2] (setting [3]) was 10 to 50 nM.

Regarding `NC[C@H]1CCc2cc(F)cc(-c3c(Cl)cccc3Cl)c2O1` [Compound 57, {[(2R)-8-(2,6-dichlorophenyl)-6-fluoro-3,4-dihydro-2H-chromen-2-yl]methyl}amine hydrochloride], in test [1], the Emax came out at 80% and the EC50 was less than 50 nM. For the same compound, the inhibitory constant (Ki) in test [2] (setting [3]) is no more than 10 nM.

Take `CNC[C@@H]1CCc2cccc(-c3ccccc3C)c2O1` [Compound 25, N-methyl-1-[(2S)-8-(2-methylphenyl)-3,4-dihydro-2H-chromen-2-yl]methanamine hydrochloride]: in test [1], the maximal response (Emax) turned out to be 90% and the 50% effective concentration (EC50) was greater than 200 nM. Further, in test [2] (setting [3]), the Ki is 10 to 50 nM.

With `CNC[C@H]1CCc2cccc(-c3ccc(Cl)cc3Cl)c2O1` [Compound 4, {[(2R)-8-(2,4-dichlorophenyl)-3,4-dihydro-2H-chromen-2-yl]methyl}methylamine hydrochloride], in test [1], the Emax was determined as 80% and the EC50 was less than 50 nM. Also, the Ki in test [2] (setting [3]) is greater than 50 nM.

Turning to `COc1ccccc1-c1cc(F)cc2c1O[C@@H](CN)C=C2` [Compound 65, {[(2R)-6-fluoro-8-(2-methoxyphenyl)-2H-chromen-2-yl]methyl}amine hydrochloride], in test [1], the Emax is 80% and the EC50 was less than 50 nM. Further, the inhibitory constant (Ki) in test [2] (setting [3]) is no more than 10 nM.

With `NC[C@H]1CCc2cc(F)cc(-c3cc(Cl)ccc3Cl)c2O1` [Compound 46, {[(2R)-8-(2,5-dichlorophenyl)-6-fluoro-3,4-dihydro-2H-chromen-2-yl]methyl}amine hydrochloride], in test [1], the maximal response (Emax) came to 90% and the EC50 was greater than 200 nM. Also, the Ki in test [2] (setting [3]) is 10 to 50 nM.

As for `CNC[C@@H]1CCc2cccc(-c3ccccc3)c2O1` [Compound 22, N-methyl-1-[(2S)-8-phenyl-3,4-dihydro-2H-chromen-2-yl]methanamine hydrochloride], the Ki in test [2] (setting [3]) was greater than 50 nM.

For the compound `NC[C@@H]1CCc2cc(F)cc(-c3ccccc3)c2O1` [Compound 52, {[(2S)-6-fluoro-8-phenyl-3,4-dihydro-2H-chromen-2-yl]methyl}amine hydrochloride], the Ki in test [2] (setting [3]) was greater than 50 nM.

Take `NC[C@H]1CCc2cc(F)cc(-c3cccnc3)c2O1` [Compound 50, {[(2R)-6-fluoro-8-pyridin-3-yl-3,4-dihydro-2H-chromen-2-yl]methyl}amine hydrochloride]: in test [1], the Emax came out at 90% and the EC50 was less than 50 nM. In test [2] (setting [3]), the Ki is 10 to 50 nM.

Regarding `NC[C@@H]1CCc2cccc(-c3cc(Cl)ccc3Cl)c2O1` [Compound 28, {[(2S)-8-(2,5-dichlorophenyl)-3,4-dihydro-2H-chromen-2-yl]methyl}amine hydrochloride], in test [1], the maximal response (Emax) turned out to be 100% and the EC50 lay in the range of 50 to 200 nM. Moreover, the Ki in test [2] (setting [3]) is 10 to 50 nM.

As for `NC[C@@H]1CCc2cc(F)cc(-c3ccc(Cl)cc3Cl)c2O1` [Compound 56, {[(2S)-8-(2,4-dichlorophenyl)-6-fluoro-3,4-dihydro-2H-chromen-2-yl]methyl}amine hydrochloride], in test [1], the Emax was 80% and the EC50 was in the range of 50 to 200 nM. In addition, the Ki in test [2] (setting [3]) is 10 to 50 nM.

Turning to `CNC[C@H]1CCc2cccc(-c3ccccc3C)c2O1` [Compound 8, N-methyl-N-{[(2R)-8-(2-methylphenyl)-3,4-dihydro-2H-chromen-2-yl]methyl}amine hydrochloride], in test [1], the Emax was 100% and the EC50 was less than 50 nM. Also, the Ki in test [2] (setting [3]) was no more than 10 nM.

In the case of `NCC1CCc2cc(F)cc(-c3ccccc3Cl)c2O1` (stereo not shown) [Compound 37, {[8-(2-chlorophenyl)-6-fluoro-3,4-dihydro-2H-chromen-2-yl]methyl}amine hydrochloride], in test [1], the Emax was 100% and the EC50 is less than 50 nM. The Ki in test [2] (setting [3]) was no more than 10 nM.

With `NC[C@H]1C=Cc2cc(F)cc(-c3c(Cl)cccc3Cl)c2O1` [Compound 66, {[(2R)-8-(2,6-dichlorophenyl)-6-fluoro-2H-chromen-2-yl]methyl}amine hydrochloride], in test [1], the Emax came out at 90% and the EC50 is less than 50 nM. Moreover, the Ki in test [2] (setting [3]) was no more than 10 nM.

As for `NC[C@@H]1CCc2cccc(-c3ccccc3)c2O1` [Compound 30, {[(2S)-8-phenyl-3,4-dihydro-2H-chromen-2-yl]methyl}amine hydrochloride], the Ki in test [2] (setting [3]) was greater than 50 nM.

As for `CNC[C@H]1CCc2cc(F)cc(-c3cccnc3)c2O1` [Compound 44, {[(2R)-6-fluoro-8-pyridin-3-yl-3,4-dihydro-2H-chromen-2-yl]methyl}methylamine hydrochloride], in test [1], the Emax worked out at 80% and the EC50 is greater than 200 nM. In addition, the Ki in test [2] (setting [3]) lay in the range of 10 to 50 nM.

Regarding `COc1ccc(-c2cccc3c2O[C@H](CN)CC3)c(OC)c1` [Compound 32, {[(2S)-8-(2,4-dimethoxyphenyl)-3,4-dihydro-2H-chromen-2-yl]methyl}amine hydrochloride], in test [1], the Emax came out at 90% and the EC50 was in the range of 50 to 200 nM. The Ki in test [2] (setting [3]) is 10 to 50 nM.

In the case of `NCC1C=Cc2cc(F)cc(-c3ccccc3Cl)c2O1` (stereo not shown) [Compound 62, {[8-(2-chlorophenyl)-6-fluoro-2H-chromen-2-yl]methyl}amine hydrochloride], in test [1], the maximum response (Emax) is 100% and the EC50 is less than 50 nM. In addition, in test [2] (setting [3]), the Ki lay in the range of 10 to 50 nM.

As for `NC[C@H]1CCCc2cc(F)cc(-c3c(Cl)cccc3Cl)c2O1` [Compound 68, {[(2R)-9-(2,6-dichlorophenyl)-7-fluoro-2,3,4,5-tetrahydro-1-benzoxepin-2-yl]methyl}amine hydrochloride], in test [1], the Emax was 80% and the EC50 fell in the range of 50 to 200 nM. For the same compound, the Ki in test [2] (setting [3]) fell in the range of 10 to 50 nM.

Take `CNC[C@H]1CCc2cccc(-c3ccccc3)c2O1` [Compound 5, N-methyl-N-{[(2R)-8-phenyl-3,4-dihydro-2H-chromen-2-yl]methyl}amine hydrochloride]: in test [1], the Emax was 90% and the concentration giving a half-maximal response (EC50) is 50 to 200 nM. In test [2] (setting [3]), the Ki is no more than 10 nM.

With `CCNC[C@H]1CCc2cc(F)cc(-c3c(Cl)cccc3Cl)c2O1` [Compound 58, N-{[(2R)-8-(2,6-dichlorophenyl)-6-fluoro-3,4-dihydro-2H-chromen-2-yl]methyl}ethanamine hydrochloride], in test [1], the Emax came out at 60% and the concentration for a half-maximal effect (EC50) is less than 50 nM. Further, the Ki in test [2] (setting [3]) is no more than 10 nM.

On to `Cc1ccccc1-c1c(Cl)ccc2c1O[C@@H](CN)CC2` [Compound 69, ((2R)-7-Chloro-8-o-tolylchroman-2-yl)methanamine hydrochloride], for which, in test [2] (setting [3]), the Ki was no more than 10 nM.

With `COc1ccccc1-c1cccc2c1O[C@H](CN)CC2` [Compound 31, {[(2S)-8-(2-methoxyphenyl)-3,4-dihydro-2H-chromen-2-yl]methyl}amine hydrochloride], the Ki in test [2] (setting [3]) was greater than 50 nM.

Take `Cc1ccccc1-c1cc(F)cc2c1O[C@H](CN)CC2` [Compound 53, {[(2S)-6-fluoro-8-(2-methylphenyl)-3,4-dihydro-2H-chromen-2-yl]methyl}amine hydrochloride]: in test [1], the Emax was 70% and the EC50 was 50 to 200 nM. The Ki in test [2] (setting [3]) fell in the range of 10 to 50 nM.

For the compound `NC[C@H]1CCc2cccc(-c3cccnc3)c2O1` [Compound 18, {[(2R)-8-pyridin-3-yl-3,4-dihydro-2H-chromen-2-yl]methyl}amine hydrochloride], in test [1], the Emax came to 90% and the EC50 is less than 50 nM. The Ki in test [2] (setting [3]) is greater than 50 nM.

In the case of `NC[C@@H]1CCc2cccc(-c3cccnc3)c2O1` [Compound 34, {[(2S)-8-pyridin-3-yl-3,4-dihydro-2H-chromen-2-yl]methyl}amine hydrochloride], the Ki in test [2] (setting [3]) was greater than 50 nM.

`Cc1cc(Cl)ccc1-c1c(F)ccc2c1O[C@@H](CN)CC2` [Compound 72, ((2R)-8-(4-Chloro-2-methylphenyl)-7-fluorochroman-2-yl)methanamine hydrochloride]: the Ki in test [2] (setting [3]) is no more than 10 nM.

In general, Kd refers to the concentration at which binding is half-saturated. Consider `COc1cc(CC(C)N)c(OC)cc1I` (stereo not shown) [[^125I] DOI, reference compound], for which the Kd in test [2] (saturation binding with increasing concentrations of [125I] DOI, read-out: dissociation constant, KD) was found to be 0.4 nM.

On to `CNC[C@@H]1CCc2cccc(-c3cccnc3)c2O1` [Compound 26, N-methyl-1-[(2S)-8-pyridin-3-yl-3,4-dihydro-2H-chromen-2-yl]methanamine hydrochloride], for which the inhibition constant (Ki) in test [2] (setting [3]) was greater than 50 nM.

For the compound `NC[C@@H]1CCc2cc(F)cc(-c3cccnc3)c2O1` [Compound 54, {[(2S)-6-fluoro-8-pyridin-3-yl-3,4-dihydro-2H-chromen-2-yl]methyl}amine hydrochloride], the Ki in test [2] (setting [3]) is greater than 50 nM.

Take `CSc1ccc2c(c1)C(N1CCN(C)CC1)Cc1ccccc1S2` (stereo not shown) [Methiothepin, reference compound]: the Ki in test [2] (reference compounds, 95% confidence interval in brackets, [125I]DOI displacement, read-out: Ki) is 4.6 nM.

As to `CNC[C@@H]1CCc2cccc(-c3ccccc3OC)c2O1` [Compound 23, {[(2S)-8-(2-methoxyphenyl)-3,4-dihydro-2H-chromen-2-yl]methyl}methylamine hydrochloride], the Ki in test [2] (setting [3]) was greater than 50 nM.

Consider `NC[C@H]1CCc2ccc(F)c(-c3ccccc3Cl)c2O1` [Compound 71, ((2R)-8-(2-chlorophenyl)-7-fluorochroman-2-yl)methanamine hydrochloride], for which, in test [2] (setting [3]), the inhibitory constant (Ki) was no more than 10 nM.
